Results on 25 compounds are retold here after US20250188040A1, “PHARMACEUTICAL COMPOSITIONS COMPRISING WRN HELICASE INHIBITORS” (Vividion Therapeutics, Inc., priority 2022, published 2025).

One experiment has as its target T1, WRN C727 (Homo sapiens, UniProt Q14191).
T1 construct: endogenous in cells; host or cells: OCI-AML2
Kind of experiment: Target engagement, in vitro (lysate), OCI-AML2. Type of experiment: binding. The settings on record: read-out: OCI-AML2 WRN C727 TE50 in vitro (lysate). Here is the method:
Cells or cell lysates were treated with a dose response of compound followed by probe treatment, which labels solvent exposed cysteines. Proteins were enzymatically digested with trypsin and probe-labelled peptides were enriched with streptavidin. Isolated peptides were then separated using reversed-phase liquid chromatography on a C18 column (Dionex Ultimated 3000 nano-LC, Thermo). Peptides were analyzed by parallel reaction monitoring mass spectrometry (Exploris 120, Thermo).
Target engagement (%) is calculated relative to DMSO treated control samples.

The next experiment has as its system SW480 cells. Kind of experiment: Cell growth assay (CellTiter-Glo 2.0), SW480 MSS cell line. The settings on record: Homo sapiens, SW480, 120 h, read-out: Cell Growth Inhibition GI50 SW480.
For the next experiment, the system named is HCT 116 cells. Kind of experiment: Cell growth assay (CellTiter-Glo 2.0), HCT 116 MSI-H cell line. The settings on record: Homo sapiens, HCT-116, 120 h, read-out: Cell Growth Inhibition GI50 HCT-116. (In ATP-based viability assays light output follows the ATP content of the culture.)
The target of experiment [1] is hWRN(519-1227)_C-H3CV-GFP-10His (Homo sapiens, UniProt Q14191). Description: Helicase Assay for WRN Inhibition (ATP-dependent, fluorescence based).
Chain of hWRN(519-1227)_C-H3CV-GFP-10His (Q14191 519-1227): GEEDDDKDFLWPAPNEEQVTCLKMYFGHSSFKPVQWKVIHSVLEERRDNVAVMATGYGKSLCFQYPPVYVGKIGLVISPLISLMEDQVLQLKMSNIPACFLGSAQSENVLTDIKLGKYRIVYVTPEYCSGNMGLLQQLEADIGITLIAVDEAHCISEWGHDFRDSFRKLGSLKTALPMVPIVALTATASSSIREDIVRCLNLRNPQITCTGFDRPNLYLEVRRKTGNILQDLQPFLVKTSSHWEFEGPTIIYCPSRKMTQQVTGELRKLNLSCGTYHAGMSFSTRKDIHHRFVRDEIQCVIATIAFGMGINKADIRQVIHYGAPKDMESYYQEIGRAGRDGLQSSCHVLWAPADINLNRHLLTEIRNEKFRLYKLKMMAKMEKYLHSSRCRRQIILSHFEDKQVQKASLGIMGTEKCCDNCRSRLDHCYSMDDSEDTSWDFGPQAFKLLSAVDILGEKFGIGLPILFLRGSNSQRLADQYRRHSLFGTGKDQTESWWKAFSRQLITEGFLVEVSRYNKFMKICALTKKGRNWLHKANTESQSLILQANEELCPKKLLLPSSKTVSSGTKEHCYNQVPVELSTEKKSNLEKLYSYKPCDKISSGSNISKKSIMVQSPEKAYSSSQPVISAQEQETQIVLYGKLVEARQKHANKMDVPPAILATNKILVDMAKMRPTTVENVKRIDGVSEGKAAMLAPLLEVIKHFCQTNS
Method: Effects of compounds on WRN helicase activity were assessed with the Helicase Assay for WRN Inhibition. This is an ATP-dependent (inclusion of ATP is important and is required for this assay) fluorescence based assay using recombinant WRN and a fluorogenic DNA substrate.
WRN activity was normalized to signal from wells without WRN protein (background, 0% activity) and wells with protein treated only with DMSO (positive control, 10000 activity). For each compound the potency of inhibition (IC50) was determiined using Graphpad Prism.
[2] abbreviates: WRN Helicase IC50, 30 min preincubation with ATP, 30 min reaction.

Broadly, the GI50 is the concentration at which growth is held to half of that of the control.

pIC50: −log10 of the molar value. Read-outs that look alike come from different tables or passages of the source.

T1 sequence (Q14191 whole entry): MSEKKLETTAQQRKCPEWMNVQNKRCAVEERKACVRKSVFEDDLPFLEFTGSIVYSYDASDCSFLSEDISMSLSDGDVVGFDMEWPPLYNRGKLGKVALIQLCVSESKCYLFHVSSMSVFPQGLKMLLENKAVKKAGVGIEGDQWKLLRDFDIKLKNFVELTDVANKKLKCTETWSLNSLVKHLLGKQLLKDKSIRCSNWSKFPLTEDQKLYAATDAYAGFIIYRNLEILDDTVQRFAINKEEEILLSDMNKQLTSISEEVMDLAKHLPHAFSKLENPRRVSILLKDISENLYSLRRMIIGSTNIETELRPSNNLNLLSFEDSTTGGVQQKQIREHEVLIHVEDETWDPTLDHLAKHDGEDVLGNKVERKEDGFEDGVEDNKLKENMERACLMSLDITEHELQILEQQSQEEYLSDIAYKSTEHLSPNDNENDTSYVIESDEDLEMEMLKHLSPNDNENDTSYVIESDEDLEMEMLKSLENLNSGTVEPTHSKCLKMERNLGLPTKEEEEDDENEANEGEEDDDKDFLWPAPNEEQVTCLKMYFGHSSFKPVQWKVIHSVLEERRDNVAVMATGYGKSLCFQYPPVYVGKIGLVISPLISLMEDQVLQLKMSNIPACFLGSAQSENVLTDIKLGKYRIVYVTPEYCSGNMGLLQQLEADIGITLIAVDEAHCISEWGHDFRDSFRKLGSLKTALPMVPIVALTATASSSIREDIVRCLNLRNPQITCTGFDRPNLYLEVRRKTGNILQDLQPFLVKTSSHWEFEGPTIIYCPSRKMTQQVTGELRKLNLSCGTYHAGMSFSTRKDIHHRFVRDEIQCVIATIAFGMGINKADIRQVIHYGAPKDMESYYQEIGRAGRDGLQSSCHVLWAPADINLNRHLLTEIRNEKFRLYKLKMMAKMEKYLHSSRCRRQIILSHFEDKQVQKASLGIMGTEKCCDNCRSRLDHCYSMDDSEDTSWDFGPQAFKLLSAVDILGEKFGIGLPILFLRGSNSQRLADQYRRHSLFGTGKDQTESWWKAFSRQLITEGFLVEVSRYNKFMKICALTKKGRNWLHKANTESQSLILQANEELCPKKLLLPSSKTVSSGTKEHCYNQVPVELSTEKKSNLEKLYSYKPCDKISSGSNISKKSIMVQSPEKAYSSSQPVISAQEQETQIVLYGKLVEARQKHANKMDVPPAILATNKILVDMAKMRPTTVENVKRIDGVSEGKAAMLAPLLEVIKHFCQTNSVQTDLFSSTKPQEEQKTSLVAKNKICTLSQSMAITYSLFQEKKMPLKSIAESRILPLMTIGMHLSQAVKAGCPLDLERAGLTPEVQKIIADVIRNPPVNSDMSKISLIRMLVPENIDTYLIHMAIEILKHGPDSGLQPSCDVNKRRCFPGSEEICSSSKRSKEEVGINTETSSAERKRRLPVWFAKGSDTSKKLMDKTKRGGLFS

Consider `C[C@@H]1CC[C@H](c2ncc(C(=O)N[C@@H](C)/C=C/S(C)(=O)=O)c(Oc3ccccc3)n2)C1` (racemic) [Example 215], for which the values for the pIC50 (on WRN C727; in experiment [1] (setting [2])) were 5.02 and 5.66, respectively. Further, the GI50 in the experiment with SW480 cells was found to be 8200 nM; in the experiment on HCT 116 cells, 1400 nM.
For `CS(=O)(=O)/C=C/[C@H](Cc1ccccc1)NC(=O)c1cnc(C2CC2)nc1Oc1ccccc1` (single isomer, unassigned) [Example 20] the same measures were 5.03, 5.77, 15400 nM and 745 nM.
For the compound `CS(=O)(=O)/C=C\[C@H](Cc1ccccc1)NC(=O)c1cnc(C2CC2)nc1Oc1ccccc1` (single isomer, unassigned) [Example 21], the pIC50 at WRN C727 was below 4.00; in experiment [1] (setting [2]), 5.21. For the same compound, the values for the 50% growth inhibitory concentration (GI50) in the experiment on SW480 cells and in the experiment on HCT 116 cells were 14000 nM and 3100 nM, respectively.
Regarding `CS(=O)(=O)/C=C\C1CN(C(=O)c2cnc(C3CC3)nc2Oc2ccccc2)C1` (single isomer, unassigned) [Example 23, (Z)-(2-cyclopropyl-4-phenoxypyrimidin-5-yl)(3-(2-(methylsulfonyl)vinyl)azetidin-1-yl)methanone], the pIC50 was 5.05 on WRN C727 and 5.47 in experiment [1]. The 50% growth inhibitory concentration (GI50) in the experiment on SW480 cells came out at 2800 nM; in the experiment on HCT 116 cells, 1100 nM.
For `CS(=O)(=O)/C=C/C1CN(C(=O)c2cnc(C3CC3)nc2Oc2ccccc2)C1` (single isomer, unassigned) [Example 24, (E)-(2-cyclopropyl-4-phenoxypyrimidin-5-yl)(3-(2-(methylsulfonyl)vinyl)azetidin-1-yl)methanone], in that order: below 4.00, 4.70, above 10000 nM and 7700 nM.
As to `C[C@@H](/C=C/S(C)(=O)=O)NC(=O)c1cnc([C@H]2C[C@@H](C)C2)nc1Oc1ccccc1` (single isomer, unassigned) [Example 46], the pIC50 is 6.00 at WRN C727 and 6.54 in experiment [1] (setting [2]). Besides, the GI50 in the experiment on SW480 cells was above 11900 nM; in the experiment on HCT 116 cells, 124 nM.
For `C[C@@H](/C=C/S(C)(=O)=O)NC(=O)c1cnc([C@H]2C[C@H](C)C2)nc1Oc1ccccc1` (single isomer, unassigned) [Example 47] the same measures were 6.00, 6.11, above 12600 nM and 292 nM.
For `CS(=O)(=O)/C=C/[C@@H](NC(=O)c1cnc([C@H]2C[C@@H](C)C2)nc1Oc1ccccc1)C1CC1` (single isomer, unassigned) [Example 48] the same measures were 7.46, 7.21, 5970 nM and 36.5 nM.
Consider `CS(=O)(=O)/C=C/[C@@H](NC(=O)c1cnc([C@H]2C[C@H](C)C2)nc1Oc1ccccc1)C1CC1` (single isomer, unassigned) [Example 49], for which the pIC50 was 6.66 on WRN C727 and 7.04 in experiment [1] (setting [2]). The figures for the GI50 in the experiment on SW480 cells and with HCT 116 cells were 5190 nM and 60.2 nM, respectively.
Turning to `CS(=O)(=O)C=C1CN(C(=O)c2cnc([C@H]3C[C@@H](C)C3)nc2Oc2ccccc2)C1` (single isomer, unassigned) [Example 50, (2-((1s,3s)-3-methylcyclobutyl)-4-phenoxypyrimidin-5-yl)(3-((methylsulfonyl)methylene)azetidin-1-yl)methanone], the pIC50 at WRN C727 was 6.55; in experiment [1], 6.66. For the same compound, the values for the GI50 in the experiment on SW480 cells and with HCT 116 cells were 7500 nM and 94.7 nM, respectively.
For `CS(=O)(=O)C=C1CN(C(=O)c2cnc([C@H]3C[C@H](C)C3)nc2Oc2ccccc2)C1` (single isomer, unassigned) [Example 51, (2-((1r,3r)-3-methylcyclobutyl)-4-phenoxypyrimidin-5-yl)(3-((methylsulfonyl)methylene)azetidin-1-yl)methanone], in that order: 5.48, 6.35, 8520 nM and 184 nM.
With `CC(C)(C)c1ncc(C(=O)N[C@H](/C=C/S(C)(=O)=O)Cc2ccccc2)c(Oc2ccccc2)n1` (single isomer, unassigned) [Example 60], the pIC50 was 5.54 on WRN C727 and 6.39 in experiment [1] (setting [2]). Also, the GI50 with SW480 cells amounted to 13000 nM; in the experiment with HCT 116 cells it was 200 nM.
For `CC(C)(C)c1ncc(C(=O)N[C@H](/C=C\S(C)(=O)=O)Cc2ccccc2)c(Oc2ccccc2)n1` (single isomer, unassigned) [Example 61], the figures for the pIC50 (at WRN C727; in experiment [1] (setting [2])) were below 4.00 and 5.46, respectively. For the same compound, the GI50 in the experiment with SW480 cells is 7500 nM; with HCT 116 cells it was 1300 nM.
In the case of `CC(/C=C/S(C)(=O)=O)NC(=O)c1cc(F)c(C2=CCCC2)nc1Oc1ccccc1` (stereo in doubt) [Example 206, (R,E)-6-(cyclopent-1-en-1-yl)-5-fluoro-N-(4-(methylsulfonyl)but-3-en-2-yl)-2-phenoxynicotinamide], the pIC50 is 4.70 on WRN C727 and 4.96 in experiment [1]. In addition, the values for the GI50 in the experiment with SW480 cells and in the experiment with HCT 116 cells were 8600 nM and 5700 nM, respectively.
For `CC(C)[C@@H](/C=C/S(C)(=O)=O)NC(=O)c1cnc(C2CCCC2)nc1Oc1ccccc1` [Example 7, (S,E)-2-cyclopentyl-N-(4-methyl-1-(methylsulfonyl)pent-1-en-3-yl)-4-phenoxypyrimidine-5-carboxamide], the pIC50 on WRN C727 is 4.85; in experiment [1] (setting [2]) it was 5.57. Besides, the GI50 was above 19500 nM with SW480 cells and 1160 nM in the experiment with HCT 116 cells.
For `CS(=O)(=O)/C=C/[C@@H](NC(=O)c1cnc(C2CCCC2)nc1Oc1ccccc1)C1CC1` [Example 8, (S,E)-2-cyclopentyl-N-(1-cyclopropyl-3-(methylsulfonyl)allyl)-4-phenoxypyrimidine-5-carboxamide] the same measures were 6.71, 7.12, 6720 nM and 44 nM.
For `CS(=O)(=O)/C=C/[C@@H](NC(=O)c1cnc(C2CCCC2)nc1Oc1ccccc1)C1CCC1` [Example 9, (S,E)-N-(1-cyclobutyl-3-(methylsulfonyl)allyl)-2-cyclopentyl-4-phenoxypyrimidine-5-carboxamide] the same measures were 6.51, 6.80, 15000 nM and 43 nM.
For `COC[C@@H](/C=C/S(C)(=O)=O)NC(=O)c1cnc(C2CCCC2)nc1Oc1ccccc1` [Example 10, (R,E)-2-cyclopentyl-N-(1-methoxy-4-(methylsulfonyl)but-3-en-2-yl)-4-phenoxypyrimidine-5-carboxamide] the same measures were 6.62, 6.89, 27400 nM and 72.4 nM.
Regarding `CC(C)c1ncc(C(=O)N[C@H](/C=C/S(C)(=O)=O)C2CC2)c(Oc2ccccc2)n1` [Example 16, (S,E)-N-(1-cyclopropyl-3-(methylsulfonyl)allyl)-2-isopropyl-4-phenoxypyrimidine-5-carboxamide], the pIC50 was 6.19 at WRN C727 and 6.74 in experiment [1] (setting [2]). Further, the GI50 stood at 24300 nM in the experiment on SW480 cells and 85 nM with HCT 116 cells.
In the case of `C[C@@H](/C=C/S(C)(=O)=O)NC(=O)c1cc2ccccc2nc1Oc1ccccc1` [Example 242, (S,E)-N-(4-(methylsulfonyl)but-3-en-2-yl)-2-phenoxyquinoline-3-carboxamide], the GI50 in the experiment with SW480 cells was above 10000 nM; in the experiment on HCT 116 cells it was 2800 nM. This compound also gave a pIC50 in experiment [1] (setting [2]) of 5.01.
As for `CS(=O)(=O)/C=C/[C@@H](NC(=O)c1cnc(OC2CC2)nc1Oc1ccccc1)C1CC1` [Example 245, (S,E)-2-cyclopropoxy-N-(1-cyclopropyl-3-(methylsulfonyl)allyl)-4-phenoxypyrimidine-5-carboxamide], the figures for the GI50 in the experiment with SW480 cells and with HCT 116 cells were 36000 nM and 140 nM, respectively. The compound further had a pIC50 in experiment [1] (setting [2]) of 5.96.
For `CS(=O)(=O)/C=C/[C@@H](NC(=O)c1cnc(OCC(F)(F)F)nc1Oc1ccccc1)C1CC1` [Example 246, (S,E)-N-(1-cyclopropyl-3-(methylsulfonyl)allyl)-4-phenoxy-2-(2,2,2-trifluoroethoxy)pyrimidine-5-carboxamide], in that order: 16000 nM, 640 nM and 5.10.
For `Cc1cc(C(=O)N[C@@H](C)/C=C/S(C)(=O)=O)c(Oc2ccccc2)nc1C1CCCC1` [Example 262, (S,E)-6-cyclopentyl-5-methyl-N-(4-(methylsulfonyl)but-3-en-2-yl)-2-phenoxynicotinamide] the same measures were 3000 nM, 1700 nM and 5.19.
For `C[C@@H](C#CC(=O)N(C)C)NC(=O)c1cnc(C(C)(F)F)nc1Oc1ccccc1` [Example 263, (S)-2-(1,1-difluoroethyl)-N-(5-(dimethylamino)-5-oxopent-3-yn-2-yl)-4-phenoxypyrimidine-5-carboxamide], the values for the GI50 with SW480 cells and in the experiment with HCT 116 cells were 2300 nM and 1400 nM, respectively. For the same compound, the pIC50 in experiment [1] (setting [2]) is 5.26.
As for `C=C(CNC(=O)c1cnc(C2CC2)nc1Oc1ccccc1)S(C)(=O)=O` [Example 287, 2-cyclopropyl-N-(2-(methylsulfonyl)allyl)-4-phenoxypyrimidine-5-carboxamide], the figures for the GI50 with SW480 cells and in the experiment on HCT 116 cells were 3900 nM and 3500 nM, respectively. The pIC50 in experiment [1] (setting [2]) was 5.10.
